Entries after “also recorded” stand apart in the source; their conditions may differ.
Key:
[1] = system: primary rat immature cortical neurons; assay: Neurotoxin-induced loss of viability of primary immature cortical neurons (LDH leakage); assay type: cell-based; details: glutamate 10 mM, 24 h; for protection against loss of neuronal viability by neurotoxins: L-homocysteic acid 1 mM, BSO 0.15 mM, BSO + arachidonic acid 0.05 mM, α-tocotrienol (nM) 5 min before
Procedure: (§1) Referring to FIG. 1, primary rat immature cortical neurons (A-C) or HT4 (D) were either treated or not with α-tocotrienol (as indicated) for 5 min and challenged with either glutamate (10 mM; A); L-homocysteic acid (1 mM; B); or buthionine sulfoximine (0.15 mM; BSO) for 24 h. […] Cells were counted at 12, 24 and 36 h after glutamate challenge.
(§2) First, we tested for the involvement of 12-LOX in the execution of glutamate-induced death in our model. We started by using the 12-LOX specific inhibitor baicalein or BL15. Referring to FIG. 3, HT4 neurons (A) were either treated or not with a-tocotrienol (250 nM) or […] (2.5 μM, 12-lipoxygenase inhibitor) for 5 min and then challenged with glutamate (10 mM). Cell viability was determined using propidium iodide (PI) exclusion flow cytometry assay. PI−=live; PI+=dead. Rat primary immature cortical neurons (B-D) were either treated or not with α-tocotrienol (100 nM) or BL15 (2.5 μM) for 5 min and challenged either with glutamate (10 mM; B); L-homocysteic acid (1 mM; C) or buthionine sulfoximine (0.15 mM; BSO; D) for 24 h. Arachidonic acid, 50 μM for 24h. BL15, Baicalein 5,6,7-trihydroxy-flavone.
(§3) Cell culture. Mouse hippocampal HT4 cells, were grown in Dulbecco's Modified Eagle Medium supplemented with 10% fetal calf serum, penicillin (100 U/ml) and streptomycin (100 μg/ml) at 37° C. in a humidified atmosphere containing 95% air and 5% CO2. HT4 cells were provided by Dr. D. E. Koshland Jr. (University of California at Berkeley) (Sen et al., 2000). Primary cortical neurons. Cells were isolated from the cerebral cortex of rat feti (Sprague Dawley; day 17 of gestation) or mouse feti (C57BL/6 mice, day 14 of gestation) as described (Murphy et al., 1990). For 12-LOX knockout studies, neurons were isolated from the feti of B6.129S2-Alox15^tm1Fun (Jackson Laboratory, […].). After isolation from the brain, cells were counted and seeded in culture plates at a density of 2-3×10^6 cells per 35 mm plate (Murphy et al., 1990). Cells were grown in Minimal Essential Medium (MEM) supplemented with 10% heat-inactivated fetal bovine serum, 40 μM cystine and antibiotics (100 μg/ml streptomycin, 100 units/ml penicillin, 0.25 μg/ml amphotericin). Cultures were maintained at 37° C. in 5% CO2 and 95% air in a humidified incubator. All experiments were carried out 24 h after plating.
(§4) Treatment with neurotoxic agents. Immediately before experiments, culture media was replaced with fresh medium supplemented with serum and antibiotics. Glutamate (10 mM) was added to the media as aqueous solution (Han et al., 1997a; Sen et al., 2000; Tirosh et al., 2000). […] Other agents used to induce death in neuronal cells have been described in the pertinent figure legends.
(§5) Vitamin E treatment. Stock solutions (10^3X of working concentration) of α-tocotrienol was prepared in ethanol. […]
(§6) Determination of cell viability. Viability of HT4 cells was determined using propidium iodide exclusion assay using the flow cytometer as described by us previously (Sen et al., 2000; Tirosh et al., 2000). Because primary neuronal cultures tend to aggregate during flow cytometry, the viability of these cells was assessed by measuring lactate dehydrogenase (LDH) leakage (Han et al., 1997a) from cells to media 24 h following glutamate treatment using in vitro toxicology assay kit from Sigma Chemical Co. (St. Louis, Mo., USA). […]

HT4 neurons [2] = assay: Glutamate-induced death of HT4 neurons (propidium iodide exclusion flow cytometry, cell counts); assay type: cell-based, mouse
Procedure: as §1, §2, §3, §4, §5, §6

[3] = system: rat primary cortical neurons; assay: Imaging of glutamate-induced degeneration of rat primary cortical neurons (immunofluorescence, live cell imaging); assay type: cell-based; details: glutamate 10 mM, α-tocotrienol 250 nM or BL15 2.5 μM 5 min before
Procedure: Phase contrast images were collected once every 15 mins for 18 h from 8 h after glutamate treatment.
For immunofluorescence microscopy, primary cultures of rat cortical neurons were plated on 35 mm plates pre-coated with poly-L-lysine. After 24 h, cell were treated with α-tocotrienol or BL15 for 5 minutes and then challenged with glutamate or exposed to glutamate. After 24 h of glutamate exposure, cells were washed thrice in PBS, fixed for 10 minutes at room temperature in 4% paraformaldehyde, and permeabilized with PBS-T (PBS containing 0.2% Triton X-100) for 20 minutes at room temperature. Samples were then rinsed 3× with PBS-T and blocking (2% BSA in PBS-T) was done for 1 h at room temperature. After blocking, samples were incubated overnight at 4° C. with the primary antibody (anti-neurofilament 200 (1:100, Sigma St. Louis, Mo.) or neuronal class III α-tubulin (1:500, Covance Berkeley, Calif.)}. After washing with PBS (3×, 5 min each), the samples were incubated with Alexa Fluor 488 conjugated goat anti-mouse or anti-rabbit (Molecular Probes Eugene, Oreg.) secondary antibody for 45 minutes at room temperature. This was followed by three PBS washes, and mounting in aqueous medium. Fluorescent images were collected using a Zeiss Axiovert 200M microscope. Images were acquired using Axiovision 3.1.
For live cell imaging, primary cultures of rat cortical neurons were plated on 35 mm plates pre-coated with poly-L-lysine. […] Images were collected once every 15 minutes using a specialized phase contrast Zeiss optics suited for imaging cells growing in routine culture plates.

primary neurons = assay: Cellular glutathione (GSH) in glutamate-treated primary neurons (HPLC-coulometric); assay type: cell-based, rat; details: glutamate 10 mM; α-tocotrienol 100 nM or BL15 2.5 μM
Procedure: as §2, with “5,6,7-trihydroxy-flavone. […] B-E: †, lower compared to the corresponding control non-treated group; *, higher compared to the corresponding toxin-treated group. P<0.05.” for “5,6,7-trihydroxy-flavone.”
Glutathione assay. Glutathione (GSH) was detected using a HPLC-coulometric electrode array detector (Coularray Detector—model 5600 with 12 channels; ESA Inc., Chelmsford, Mass.). […] Glutathione was detected at channels set at following potentials: I) 600 mV, II) 700 mV; and II) 800 mV. Signals from channel set at 800 mV were used for quantification (Sen et al., 2002).

HT4 neurons [4] = details: nM concentrations; Sen et al., 2000; cited from earlier work

SMILES: CC(C)=CCC/C(C)=C/CC/C(C)=C/CC[C@]1(C)CCc2c(C)c(O)c(C)c(C)c2O1 [α-tocotrienol]
- protection against glutamate-induced death of primary neurons ([1]; α-tocotrienol 100 nM or BL15 2.5 μM 5 min before): protected neurons against glutamate challenge
- protection against loss of neuronal viability by neurotoxins [1]: protects
- protection against loss of neuronal viability by neurotoxins ([1]; listed as α-Tocotrienol): total protection
- protection against glutamate-induced toxicity / loss of cell viability of HT4 (HT4 neurons [2]; glutamate 10 mM, tocotrienol 100 nM (nM levels) 5 min before): protect against loss of cell viability
- proliferation / growth rate of glutamate-treated HT4 cells (HT4 neurons [2]; tocotrienol 100 nM (nM levels), cells counted 12, 24 and 36 h after glutamate): preserve the normal growth rate
- glutamate-induced degeneration of the neural network and neuronal growth [3]: resisted degeneration and continued to grow; also recorded: prevents glutamate-induced neuro-degeneration; also recorded: protection
- glutamate-induced degeneration of the neural network and neuronal growth ([3]; listed as α-Tocotrienol): insensitive to glutamate
- cellular glutathione (GSH) in protected glutamate-treated primary neurons (primary neurons): loss of cellular glutathione
- protection of HT4 neurons from glutamate-induced death (previously reported) (HT4 neurons [4]): protects

— patent US20050228041A1, “Protective and therapeutic uses for tocotrienols” (priority 2003, published 2005)
